The text below walks through data of patent US20250101042A1, “KRAS G12D MODULATING COMPOUNDS” (Gilead Sciences, Inc., priority 2023, published 2025).

pEC50, pIC50: −log10 of the molar value.

What is called pIC50 is −log10 of the IC50, conventionally taken in molar units. A lower pIC50 goes with a high IC50. In general, pEC50 refers to the EC50 on a negative log10 scale, so that one unit is a factor of ten. Low values mean a large EC50, high ones a small EC50.

Assay [1] has as its target GDP-loaded KRAS G12D (Homo sapiens, UniProt P01116, G12D). As to the kind of experiment: KRAS G12D (GDP) Biochemical Assay (TR-FRET probe displacement). It counts as binding. Particulars: 0.5 nM enzyme, 2 hours at room temperature. Here is the method:
Example A. KRAS G12D (GDP) Biochemical Assay
Compounds were tested for binding to GDP-loaded KRAS G12D in a 384-well assay format using a TR-FRET probe displacement assay in buffer consisting of 50 mM Hepes (pH 7.4), 150 mM NaCl, 5 mM MgCl2 and 0.005% Tween-20. […] Compounds were serially diluted (1:3) in DMSO. The LabCyte ECHO Acoustic dispenser system was used to pre-spot the assay plates (384-well Non-Binding Surface plates, Corning, Catalog #3824) with 50 nL of compound. The compounds were pre-incubated with 5 μL of 2× final enzyme concentration for 30 minutes before adding 5 μL of 2× final concentration of Eu-streptavidin and TR-FRET probe (10 μL final reaction volume). The plates were incubated at room temperature for 2 hours before measuring TR-FRET ratio on the Envision plate reader. IC50 values were defined as the compound concentration that causes a 50% decrease in TR-FRET ratio and were calculated using a sigmoidal dose-response model to generate curve fits.
On the technique in general: Time-resolved FRET reads energy transfer from a long-lived donor to a nearby acceptor.

Assay [2] concerns GP2D (KRAS G12D) cells. As to the kind of experiment: 2D Cell Viability Assay (CellTiter-Glo). It counts as cell-based. Particulars: 4 days, CellTiter-Glo luminescence. Here is the method:
Example B. 2D Cell Viability Assay
Compounds were tested in a 384-well format for their ability to inhibit the viability of GP2D (KRAS G12D) cells in 2D assays. Compounds were serially diluted (1:3) in DMSO. The LabCyte ECHO Acoustic dispenser system was used to pre-spot assay plates with 200 nL of test molecule per well. 1000 cells/well (40 μL volume per well) in RPMI medium with 10% FBS, and Penicillin-Streptomycin-Glutamine were plated in pre-spotted 384-well plates (Greiner, Catalog #781076) on the BioTEK EL406 liquid dispenser with a 5 μL dispensing cassette (BioTek 7170011). The plates were incubated at 37° C., 5% CO2 for 4 days before addition of CellTiter-Glo (CTG) reagent and measurement of luminescence signal. EC50 values were defined as the compound concentration that causes a 50% decrease in luminescence signal and were calculated using a sigmoidal dose-response model to generate curve fits.
(In general: ATP-based viability assays read luminescence as a measure of living cells.)

GDP-loaded KRAS G12D, sequence (P01116 1-188 isoform P01116-2 G12D): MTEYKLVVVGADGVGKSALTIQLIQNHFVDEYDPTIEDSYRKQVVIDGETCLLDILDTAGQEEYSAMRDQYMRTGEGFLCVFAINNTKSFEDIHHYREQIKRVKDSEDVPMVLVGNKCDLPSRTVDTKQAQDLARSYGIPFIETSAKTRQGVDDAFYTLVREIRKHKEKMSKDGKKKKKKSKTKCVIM

For `Cc1cc(N)nc(-c2c(Br)c3c4c(nc(OC[C@@]56CCCN5C[C@H](F)C6)nc4c2F)N2C[C@H]4CC[C@H](N4)[C@H]2CC3)c1C(F)(F)F` [Example 14, 6-((1S,4R,14aR)-12-bromo-10-fluoro-8-(((2R,7aS)-2-fluorotetrahydro-1H-pyrrolizin-7a(5H)-yl)methoxy)-1,2,3,4,5,13,14,14a-octahydro-1,4-epiminoazepino[1′,2′:1,7]azepino[2,3,4-de]quinazolin-11-yl)-4-methyl-5-(trifluoromethyl)pyridin-2-amine], the pIC50 in assay [1] was 9.62. In addition, the negative logarithm of the EC50 (pEC50) in assay [2] (GP2d, 96 h) is 8.60.

Compound `Cc1cc(N)nc(-c2c(F)c3c4c(nc(OC[C@@]56CCCN5C[C@H](F)C6)nc4c2F)N2C[C@H]4CC[C@H](N4)[C@H]2CC3)c1C(F)(F)F` [Example 19, 6-((1S,4R,14aR)-10,12-difluoro-8-(((2R,7aS)-2-fluorotetrahydro-1H-pyrrolizin-7a(5H)-yl)methoxy)-1,2,3,4,5,13,14,14a-octahydro-1,4-epiminoazepino[1′,2′:1,7]azepino[2,3,4-de]quinazolin-11-yl)-4-methyl-5-(trifluoromethyl)pyridin-2-amine] had a pIC50 in assay [1] of 9.74. The pEC50 in assay [2] (GP2d, 96 h) was 8.48.

Take `Nc1cc(Cl)c(C(F)F)c(-c2nc3c4c(nc(OC[C@@]56CCCN5C[C@H](F)C6)nc4c2F)N2C[C@H]4CC[C@H](N4)[C@H]2CCC3)n1` [Example 24, 4-chloro-5-(difluoromethyl)-6-((6aR,7S,10R)-1-fluoro-13-(((2R,7aS)-2-fluorotetrahydro-1H-pyrrolizin-7a(5H)-yl)methoxy)-5,6,6a,7,8,9,10,11-octahydro-4H-3,11a,12,14,15-pentaaza-7,10-methanocyclohepta[4,5]cycloocta[1,2,3-de]naphthalen-2-yl)pyridin-2-amine]: in assay [1], the pIC50 is 7.96. The pEC50 in assay [2] (GP2d, 96 h) was less than 7.00.

On to `N#Cc1c(N)sc2cccc(-c3c(F)c4c5c(nc(OC[C@@]67CCCN6C[C@H](F)C7)nc5c3F)N3C[C@H]5CC[C@H](N5)[C@H]3CC4)c12` [Example 25, 2-amino-4-((1S,4R,14aR)-10,12-difluoro-8-(((2R,7aS)-2-fluorotetrahydro-1H-pyrrolizin-7a(5H)-yl)methoxy)-1,2,3,4,5,13,14,14a-octahydro-1,4-epiminoazepino[1′,2′:1,7]azepino[2,3,4-de]quinazolin-11-yl)benzo[b]thiophene-3-carbonitrile], for which, in assay [1], the negative-log IC50 (pIC50) was 9.92. Also, in assay [2] (GP2d, 96 h), the pEC50 was 8.80.

Consider `Cc1cc(N)nc(-c2c(F)c3c4c(nc(OC[C@@]56CCCN5C[C@H](F)C6)nc4c2F)N2C[C@H]4CC[C@H](N4)[C@H]2CC3)c1C(F)(F)F` (single isomer, unassigned) [Example 22], for which, in assay [1], the pIC50 was 10.10. The negative-log EC50 (pEC50) in assay [2] was 8.80.

With `N#Cc1c(N)sc2c(F)ccc(-c3c(F)c4c5c(nc(OC[C@@]67CCCN6C[C@H](F)C7)nc5c3F)N3C[C@H]5CC[C@H](N5)[C@H]3CC4)c12` (single isomer, unassigned) [Example 60], in assay [1], the pIC50 was 10.52. This compound also gave a pEC50 in assay [2] of 8.74.

`Cc1cc(N)nc(-c2cc3c4c(nc(OC[C@@]56CCCN5C[C@H](F)C6)nc4c2F)N2C[C@H]4CC[C@H](N4)[C@H]2CC3)c1C(F)(F)F` [Example 9, 6-((1S,4R,14aR)-10-fluoro-8-(((2R,7aS)-2-fluorotetrahydro-1H-pyrrolizin-7a(5H)-yl)methoxy)-1,2,3,4,5,13,14,14a-octahydro-1,4-epiminoazepino[1′,2′:1,7]azepino[2,3,4-de]quinazolin-11-yl)-4-methyl-5-(trifluoromethyl)pyridin-2-amine]: the pIC50 in assay [1] was 8.60. In assay [2] (GP2d, 96 h), the pEC50 is 7.43.

Consider `Nc1nc2c(F)ccc(-c3nc4c5c(nc(OC[C@@]67CCCN6C[C@H](F)C7)nc5c3F)N3C[C@H]5CC[C@H](N5)[C@H]3CC4)c2s1` [Example 20, 4-fluoro-7-((5aR,6S,9R)-1-fluoro-12-(((2R,7aS)-2-fluorotetrahydro-1H-pyrrolizin-7a(5H)-yl)methoxy)-4,5,5a,6,7,8,9,10-octahydro-3,10a,11,13,14-pentaaza-6,9-methanonaphtho[1,8-ab]heptalen-2-yl)benzo[d]thiazol-2-amine], for which the negative logarithm of the IC50 (pIC50) in assay [1] is 8.09. Besides, the pEC50 in assay [2] (GP2d, 96 h) is less than 7.00.

In assay [1], `C[C@H]1Cc2c(Cl)c(-c3ccc(F)c4sc(N)c(C#N)c34)c(F)c3nc(OC[C@@]45CCCN4C[C@H](F)C5)nc(c23)N2C[C@H]3CC[C@H](N3)[C@H]12` (atropisomer, axis not shown; (aS)) [Example 52, 2-amino-4-((1S,4R,11R,14S,14aS)-12-chloro-10-fluoro-8-(((2R,7aS)-2-fluorotetrahydro-1H-pyrrolizin-7a(5H)-yl)methoxy)-14-methyl-1,2,3,4,5,13,14,14a-octahydro-1,4-epiminoazepino[1′,2′:1,7]azepino[2,3,4-de]quinazolin-11-yl)-7-fluorobenzo[b]thiophene-3-carbonitrile] had a negative-log IC50 (pIC50) of 10.52.

In assay [2] (GP2d, 96 h), `C#Cc1c(F)ccc2cc(N)nc(-c3c(Cl)c4c5c(nc(OC[C@@]67CCCN6C[C@H](F)C7)nc5c3F)N3C[C@H]5CC[C@H](N5)[C@@H]3[C@@H](C)C4)c12` (atropisomer, axis not shown; (aS)) [Example 48, 1-((1S,4R,11R,14S,14aS)-12-chloro-10-fluoro-8-(((2R,7aS)-2-fluorotetrahydro-1H-pyrrolizin-7a(5H)-yl)methoxy)-14-methyl-1,2,3,4,5,13,14,14a-octahydro-1,4-epiminoazepino[1′,2′:1,7]azepino[2,3,4-de]quinazolin-11-yl)-8-ethynyl-7-fluoroisoquinolin-3-amine] had a pEC50 of 8.09.

For the compound `C[C@H]1Cc2c(Cl)c(-c3cccc4sc(N)c(C#N)c34)c(F)c3nc(OC[C@@]45CCCN4C[C@H](F)C5)nc(c23)N2C[C@H]3CC[C@H](N3)[C@H]12` (atropisomer, axis not shown; (aS)) [Example 57, 2-amino-4-((1S,4R,11R,14S,14aS)-12-chloro-10-fluoro-8-(((2R,7aS)-2-fluorotetrahydro-1H-pyrrolizin-7a(5H)-yl)methoxy)-14-methyl-1,2,3,4,5,13,14,14a-octahydro-1,4-epiminoazepino[1′,2′:1,7]azepino[2,3,4-de]quinazolin-11-yl)benzo[b]thiophene-3-carbonitrile], the negative logarithm of the IC50 (pIC50) in assay [1] was 10.22. In assay [2] (GP2d, 96 h), this compound gave a pEC50 of 9.03.

The compound `C#Cc1c(F)ccc2cc(N)nc(-c3nc4c5c(nc(OC[C@@]67CCCN6C[C@H](F)C7)nc5c3F)N3C[C@H]5CC[C@H](N5)[C@H]3CCC4)c12` [Example 26, 8-ethynyl-7-fluoro-1-((6aR,7S,10R)-1-fluoro-13-(((2R,7aS)-2-fluorotetrahydro-1H-pyrrolizin-7a(5H)-yl)methoxy)-5,6,6a,7,8,9,10,11-octahydro-4H-3,11a,12,14,15-pentaaza-7,10-methanocyclohepta[4,5]cycloocta[1,2,3-de]naphthalen-2-yl)isoquinolin-3-amine] showed a pIC50 in assay [1] of 9.40. Besides, in assay [2] (GP2d, 96 h), the pEC50 is 8.39.

In assay [1], `Cc1cc(N)nc(-c2c(Cl)c3c4c(nc(OC[C@@]56CCCN5C[C@H](F)C6)nc4c2F)N2C[C@H]4CC[C@H](N4)[C@H]2CC3)c1C(F)(F)F` (single isomer, unassigned) [Example 5] showed a pIC50 of 8.96. The compound also showed a negative-log EC50 (pEC50) in assay [2] of 7.85.

Turning to `Cc1cc(N)nc(-c2nc3c4c(nc(OC[C@@]56CCCN5C[C@H](F)C6)nc4c2F)N2C[C@H]4CC[C@H](N4)[C@H]2C[C@H](C)C3)c1C(F)(F)F` [Example 18, 6-((5S,6aR,7S,10R)-1-fluoro-13-(((2R,7aS)-2-fluorotetrahydro-1H-pyrrolizin-7a(5H)-yl)methoxy)-5-methyl-5,6,6a,7,8,9,10,11-octahydro-4H-3,11a,12,14,15-pentaaza-7,10-methanocyclohepta[4,5]cycloocta[1,2,3-de]naphthalen-2-yl)-4-methyl-5-(trifluoromethyl)pyridin-2-amine], the negative-log IC50 (pIC50) in assay [1] is 7.08. In assay [2] (GP2d, 96 h), this compound had a pEC50 of less than 7.00.

`C=Cc1c(-c2nc(N)cc(C)c2C(F)(F)F)c(F)c2nc(OC[C@@]34CCCN3C[C@H](F)C4)nc3c2c1CC[C@@H]1[C@@H]2CC[C@H](CN31)N2` [Example 15, 6-((1S,4R,14aR)-10-fluoro-8-(((2R,7aS)-2-fluorotetrahydro-1H-pyrrolizin-7a(5H)-yl)methoxy)-12-vinyl-1,2,3,4,5,13,14,14a-octahydro-1,4-epiminoazepino[1′,2′:1,7]azepino[2,3,4-de]quinazolin-11-yl)-4-methyl-5-(trifluoromethyl)pyridin-2-amine] had a pIC50 in assay [1] of 9.37. Also, the pEC50 in assay [2] (GP2d, 96 h) was 7.62.
